Measured values reported in ChEMBL document CHEMBL1201862, “PubChem BioAssay data set” (2004).
Active and inactive are the calls of the source.

How the values were obtained:
[1] = biological target: T1, Aminopeptidase N (Plasmodium falciparum FcB1/Columbia, UniProt O96935); assay: malaria alanyl aminopeptidase activity blockers – biochemical, fluorogenic H-Leu-NHMec substrate, 1536-well (AID 1445); parameters: species or system Plasmodium falciparum 3D7, 3D7
T1 sequence (O96935 whole entry): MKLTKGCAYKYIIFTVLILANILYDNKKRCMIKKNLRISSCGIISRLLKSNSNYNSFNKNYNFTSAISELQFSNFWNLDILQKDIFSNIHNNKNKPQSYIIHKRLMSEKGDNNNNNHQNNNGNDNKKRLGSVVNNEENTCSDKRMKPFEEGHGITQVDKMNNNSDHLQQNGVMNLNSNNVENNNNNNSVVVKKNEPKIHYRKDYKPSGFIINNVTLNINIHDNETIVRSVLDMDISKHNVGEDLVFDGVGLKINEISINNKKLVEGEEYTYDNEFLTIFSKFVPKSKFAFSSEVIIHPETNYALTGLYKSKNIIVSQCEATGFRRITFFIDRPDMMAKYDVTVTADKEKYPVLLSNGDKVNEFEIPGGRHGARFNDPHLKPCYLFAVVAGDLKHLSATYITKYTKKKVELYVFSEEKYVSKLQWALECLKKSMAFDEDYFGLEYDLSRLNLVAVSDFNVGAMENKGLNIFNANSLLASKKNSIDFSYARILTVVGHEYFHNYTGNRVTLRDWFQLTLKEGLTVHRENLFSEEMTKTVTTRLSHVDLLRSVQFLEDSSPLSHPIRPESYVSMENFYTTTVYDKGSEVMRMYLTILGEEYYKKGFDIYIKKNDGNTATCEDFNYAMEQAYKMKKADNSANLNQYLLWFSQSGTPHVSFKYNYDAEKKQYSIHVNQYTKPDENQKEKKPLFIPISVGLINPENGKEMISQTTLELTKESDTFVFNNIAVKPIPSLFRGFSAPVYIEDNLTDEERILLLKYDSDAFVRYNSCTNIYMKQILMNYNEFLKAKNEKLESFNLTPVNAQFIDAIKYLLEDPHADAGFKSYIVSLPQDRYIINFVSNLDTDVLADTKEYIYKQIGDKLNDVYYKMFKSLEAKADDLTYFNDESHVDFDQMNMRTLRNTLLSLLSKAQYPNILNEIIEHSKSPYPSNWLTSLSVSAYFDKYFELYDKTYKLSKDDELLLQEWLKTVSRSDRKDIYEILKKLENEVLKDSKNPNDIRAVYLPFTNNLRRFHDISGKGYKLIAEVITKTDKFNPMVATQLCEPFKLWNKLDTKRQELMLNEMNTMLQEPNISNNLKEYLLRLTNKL

[2] = biological target: T2, Leucine aminopeptidase (Plasmodium falciparum 3D7, UniProt Q8IL11); assay: P. falciparum M17LAP inhibitors, primary screen, biochemical, fluorogenic H-Leu-NHMec substrate, 1536-well (AID 1619); format: functional
T2 sequence (Q8IL11 whole entry): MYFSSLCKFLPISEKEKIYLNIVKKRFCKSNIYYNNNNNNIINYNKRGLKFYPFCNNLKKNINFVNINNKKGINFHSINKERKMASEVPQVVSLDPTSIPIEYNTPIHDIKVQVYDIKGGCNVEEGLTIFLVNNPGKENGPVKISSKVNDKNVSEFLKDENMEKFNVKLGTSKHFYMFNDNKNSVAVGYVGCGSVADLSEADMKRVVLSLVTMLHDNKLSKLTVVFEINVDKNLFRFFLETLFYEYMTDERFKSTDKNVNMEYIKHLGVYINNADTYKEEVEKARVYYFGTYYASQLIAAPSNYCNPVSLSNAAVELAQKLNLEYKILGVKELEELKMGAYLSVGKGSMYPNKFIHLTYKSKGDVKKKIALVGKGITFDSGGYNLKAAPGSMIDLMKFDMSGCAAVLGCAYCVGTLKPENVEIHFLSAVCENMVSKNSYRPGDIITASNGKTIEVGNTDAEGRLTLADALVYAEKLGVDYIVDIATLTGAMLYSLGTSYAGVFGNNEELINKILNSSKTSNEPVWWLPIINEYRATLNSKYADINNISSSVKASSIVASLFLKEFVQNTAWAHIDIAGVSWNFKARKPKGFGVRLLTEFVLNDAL

[3] = biological target: Large T antigen (Simian virus 40, UniProt P03070); format: functional, Betapolyomavirus macacae;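 further: Confirmatory-stage PubChem screen for compounds that inhibit SV40 T antigen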
Sequence of Large T antigen (P03070 whole entry): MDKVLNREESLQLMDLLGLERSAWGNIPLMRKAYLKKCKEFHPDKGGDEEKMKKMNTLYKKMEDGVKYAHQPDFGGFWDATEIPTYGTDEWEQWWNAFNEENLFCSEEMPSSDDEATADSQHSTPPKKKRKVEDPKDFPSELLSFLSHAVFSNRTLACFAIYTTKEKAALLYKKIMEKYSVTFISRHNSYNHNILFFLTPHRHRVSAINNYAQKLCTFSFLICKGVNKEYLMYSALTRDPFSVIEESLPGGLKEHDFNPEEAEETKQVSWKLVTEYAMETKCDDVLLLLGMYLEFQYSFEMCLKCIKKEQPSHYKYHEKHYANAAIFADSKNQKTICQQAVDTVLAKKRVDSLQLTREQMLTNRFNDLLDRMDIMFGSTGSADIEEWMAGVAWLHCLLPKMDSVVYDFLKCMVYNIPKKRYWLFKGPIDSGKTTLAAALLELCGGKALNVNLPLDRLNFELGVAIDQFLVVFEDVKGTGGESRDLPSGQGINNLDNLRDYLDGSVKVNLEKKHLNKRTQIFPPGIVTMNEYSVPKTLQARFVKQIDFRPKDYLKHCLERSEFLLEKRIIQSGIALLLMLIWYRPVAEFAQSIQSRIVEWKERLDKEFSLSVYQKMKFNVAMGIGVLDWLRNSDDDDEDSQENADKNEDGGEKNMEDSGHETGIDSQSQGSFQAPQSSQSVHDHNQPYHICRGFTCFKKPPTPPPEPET

[4] = NIH-3T3 fibroblast cytotoxicity, dose response, cytotoxicity control, cell-based, fluorescence, Alamar Blue, secondary assay (AID 2327); format: functional;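 further: NIH-3T3 mouse fibroblasts cultured with fluconazole at 8 µg/mL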
[5] = biological target: T3, Aspartyl aminopeptidase (Plasmodium falciparum 3D7, UniProt Q8I2J3)
T3 sequence (Q8I2J3 whole entry): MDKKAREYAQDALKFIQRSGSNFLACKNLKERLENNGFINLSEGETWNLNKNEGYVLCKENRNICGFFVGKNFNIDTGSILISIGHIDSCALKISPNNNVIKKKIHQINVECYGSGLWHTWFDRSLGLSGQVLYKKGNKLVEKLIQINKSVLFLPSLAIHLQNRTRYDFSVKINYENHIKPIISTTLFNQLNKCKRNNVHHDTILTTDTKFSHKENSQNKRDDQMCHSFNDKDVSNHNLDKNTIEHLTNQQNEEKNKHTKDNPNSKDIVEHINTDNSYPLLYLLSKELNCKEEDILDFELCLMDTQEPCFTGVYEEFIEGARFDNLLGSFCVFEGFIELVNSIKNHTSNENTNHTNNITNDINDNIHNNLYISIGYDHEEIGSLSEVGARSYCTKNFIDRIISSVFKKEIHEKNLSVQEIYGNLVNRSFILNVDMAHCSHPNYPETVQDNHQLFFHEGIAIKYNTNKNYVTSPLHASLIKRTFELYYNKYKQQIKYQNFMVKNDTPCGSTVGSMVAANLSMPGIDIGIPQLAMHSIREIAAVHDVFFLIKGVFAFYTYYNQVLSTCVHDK

[6] = biological target: Procathepsin L (Homo sapiens, UniProt P07711)
Sequence of Procathepsin L (P07711 whole entry): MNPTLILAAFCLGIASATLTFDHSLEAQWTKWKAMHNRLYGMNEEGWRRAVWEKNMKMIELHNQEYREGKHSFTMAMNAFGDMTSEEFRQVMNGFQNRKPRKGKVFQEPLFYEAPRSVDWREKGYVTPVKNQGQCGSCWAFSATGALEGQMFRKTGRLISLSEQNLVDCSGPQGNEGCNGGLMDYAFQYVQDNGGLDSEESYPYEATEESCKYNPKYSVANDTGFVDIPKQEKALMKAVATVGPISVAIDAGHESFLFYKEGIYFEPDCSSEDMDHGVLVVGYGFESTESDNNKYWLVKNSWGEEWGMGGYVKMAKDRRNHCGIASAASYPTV

[7] = fluconazole-exposed Candida albicans growth modulators – fluorescence, retest, confirmation (AID 2467); format: functional, cell-based
[8] = biological target: T4, Histone-lysine N-methyltransferase NSD2 (Homo sapiens, UniProt O96028); format: biochemical
T4 sequence (O96028 whole entry): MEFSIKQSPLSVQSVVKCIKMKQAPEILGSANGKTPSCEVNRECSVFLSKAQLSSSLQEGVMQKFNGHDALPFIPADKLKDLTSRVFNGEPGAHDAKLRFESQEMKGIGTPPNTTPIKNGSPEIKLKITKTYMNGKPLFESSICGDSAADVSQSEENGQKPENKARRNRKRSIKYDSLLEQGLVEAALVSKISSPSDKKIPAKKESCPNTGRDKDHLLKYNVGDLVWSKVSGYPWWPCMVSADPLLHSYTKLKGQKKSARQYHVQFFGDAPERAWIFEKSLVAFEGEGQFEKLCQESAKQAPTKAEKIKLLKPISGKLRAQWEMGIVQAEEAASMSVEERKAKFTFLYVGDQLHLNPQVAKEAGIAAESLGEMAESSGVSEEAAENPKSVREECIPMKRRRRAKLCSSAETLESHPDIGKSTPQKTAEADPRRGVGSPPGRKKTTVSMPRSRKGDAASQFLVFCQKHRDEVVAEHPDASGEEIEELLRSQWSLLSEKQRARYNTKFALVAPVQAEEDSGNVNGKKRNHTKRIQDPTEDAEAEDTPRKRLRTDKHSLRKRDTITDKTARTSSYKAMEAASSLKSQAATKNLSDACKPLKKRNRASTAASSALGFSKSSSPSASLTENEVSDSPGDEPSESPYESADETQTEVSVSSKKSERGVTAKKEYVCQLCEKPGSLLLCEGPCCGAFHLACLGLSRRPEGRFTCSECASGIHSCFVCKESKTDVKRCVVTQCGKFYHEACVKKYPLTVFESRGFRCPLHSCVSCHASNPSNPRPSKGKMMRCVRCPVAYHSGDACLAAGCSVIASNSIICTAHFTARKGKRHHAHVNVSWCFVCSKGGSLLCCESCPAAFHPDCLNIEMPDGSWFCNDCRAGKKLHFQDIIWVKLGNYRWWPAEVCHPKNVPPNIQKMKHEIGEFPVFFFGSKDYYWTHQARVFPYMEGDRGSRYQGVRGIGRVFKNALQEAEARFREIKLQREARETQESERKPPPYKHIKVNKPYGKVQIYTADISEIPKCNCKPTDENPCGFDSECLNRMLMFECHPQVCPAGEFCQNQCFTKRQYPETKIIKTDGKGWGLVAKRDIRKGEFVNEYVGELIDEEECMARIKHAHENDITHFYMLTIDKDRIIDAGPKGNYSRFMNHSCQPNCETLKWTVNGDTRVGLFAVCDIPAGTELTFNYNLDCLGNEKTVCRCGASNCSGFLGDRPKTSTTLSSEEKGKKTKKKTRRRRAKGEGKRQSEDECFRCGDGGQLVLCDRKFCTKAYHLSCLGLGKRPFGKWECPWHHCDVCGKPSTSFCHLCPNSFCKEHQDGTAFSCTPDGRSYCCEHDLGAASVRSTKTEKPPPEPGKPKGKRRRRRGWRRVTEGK

[9] = biological target: T5, Mannose-6-phosphate isomerase (Homo sapiens, UniProt P34949); assay: MPI inhibition at elevated mannose 6-phosphate – biochemical, fluorescence intensity, high mannose 6-phosphate, primary screen (AID 1220)
T5 sequence (P34949 whole entry): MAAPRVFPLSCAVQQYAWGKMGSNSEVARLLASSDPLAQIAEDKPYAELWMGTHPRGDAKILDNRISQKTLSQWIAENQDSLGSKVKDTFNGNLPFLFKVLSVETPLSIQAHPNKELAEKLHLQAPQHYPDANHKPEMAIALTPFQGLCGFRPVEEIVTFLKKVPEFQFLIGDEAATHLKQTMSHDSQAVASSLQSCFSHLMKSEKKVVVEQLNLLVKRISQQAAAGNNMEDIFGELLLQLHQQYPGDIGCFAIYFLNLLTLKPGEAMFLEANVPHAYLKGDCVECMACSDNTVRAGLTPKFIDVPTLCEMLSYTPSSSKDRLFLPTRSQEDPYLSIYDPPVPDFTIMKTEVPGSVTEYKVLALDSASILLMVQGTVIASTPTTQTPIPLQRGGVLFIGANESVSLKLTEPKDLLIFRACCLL

[10] = biological target: Glucose-6-phosphate 1-dehydrogenase (Homo sapiens, UniProt P11413); assay: inhibition of Homo sapiens G6PD, dose series – biochemical, fluorescence, selectivity assay for P. falciparum G6PD inhibitor project, dose response (AID 504792); format: functional
Sequence of Glucose-6-phosphate 1-dehydrogenase (P11413 whole entry): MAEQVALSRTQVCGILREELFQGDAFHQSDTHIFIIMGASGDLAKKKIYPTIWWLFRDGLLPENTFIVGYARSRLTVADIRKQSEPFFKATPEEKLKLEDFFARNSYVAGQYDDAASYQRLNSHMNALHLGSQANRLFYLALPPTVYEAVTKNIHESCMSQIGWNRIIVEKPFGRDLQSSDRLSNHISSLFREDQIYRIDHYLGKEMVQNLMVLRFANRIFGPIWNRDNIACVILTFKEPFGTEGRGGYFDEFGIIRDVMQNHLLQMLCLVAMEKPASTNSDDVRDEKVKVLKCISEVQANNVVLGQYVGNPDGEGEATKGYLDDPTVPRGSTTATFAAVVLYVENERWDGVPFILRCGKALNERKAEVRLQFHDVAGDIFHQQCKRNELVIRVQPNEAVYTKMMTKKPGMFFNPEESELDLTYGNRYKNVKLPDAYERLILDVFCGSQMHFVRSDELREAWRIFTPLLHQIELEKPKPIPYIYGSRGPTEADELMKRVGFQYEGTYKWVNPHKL

| IC50 [1] | IC50 [3] | SMILES | IC50 [2] | EC50 [4] | IC50 [5] | IC50 [6] | EC50 [7] | AC50 [8] | IC50 [9] | IC50 [10] |
| --- | --- | --- | --- | --- | --- | --- | --- | --- | --- | --- |
| 26.5 µM (active) |  | CCOc1cc(/C=C2\N=C(SC)SC2=O)cc([N+](=O)[O-])c1OC(C)=O |  |  |  |  |  |  |  |  |
| 19.2 µM (active) | 10.1 µM (active) | COc1cc(/C=C2\SC(=S)N(NS(=O)(=O)c3ccc(C)cc3)C2=O)ccc1O | 27.1 µM (active) |  |  |  |  |  |  |  |
|  |  | COc1cccc2c(SCC(=O)N/N=C/c3ccc(O)c(O)c3)cc(C)nc12 | 16.2 µM (active) | 26.3 µM (active) | 2.01 µM (active) | > 59.6 µM (not active) | > 38 µM (not active) | 10.4 µM (active) |  |  |
|  |  | C[C@]12CC[C@@H]3c4ccc(O)c(O)c4CC[C@H]3[C@@H]1CC[C@@H]2O |  |  | 1.22 µM (active) | > 59.6 µM (not active) |  |  | 29 µM (active) | 29.1 µM (inactive) |
